Experiments:
[1] = Hydrogen peroxide destruction in bulk solution in a tube, temperature rise as proxy; assay type: physicochemical; settings: antagonist concentrations of below 1×10^−4 M; 0.02M sodium hydroxide; FIG. 3
Description: Screening was initially conducted using bulk solutions combined in a tube, rather than as aerosols.
During destruction of hydrogen peroxide by Mn(II) or permanganate in tubes the temperature of the solution rather often reached boiling point. This should not happen when the biocide is sprayed as a mist due to absolutely different heat exchange conditions in bulk solution and in a thin layer of biocide. […] By lead time is meant the lag or induction period before the reaction velocity increases steeply.

[2] = according OH&S requirements; of Mn; cited from earlier work

Question: For [K+].[O]=[Mn](=[O])(=[O])[O-] [KMnO4], which “time to peak rate of reaction with 35% peroxide” value [1] is on record?
Answer: about 10 mins

Question: Which permissible exposure limit [2] does the source give for [Mn] [Mn] here?
Answer: 5 mg/m^3

Reference: US9226495B2, “Disinfection aerosol, method of use and manufacture” (SABAN VENTURES PTY LIMITED, priority 2009, dated 2016)
